Test results published in patent publication US9790169B2, “IDO inhibitors” (BRISTOL-MYERS SQUIBB COMPANY, priority 2015, dated 2017).

The molecules below were run against human IDO1 (Homo sapiens, UniProt P14902) (assay: Assessment of human IDO-1 inhibitory activity in HEK cells (human IDO1/HEK293 cells, kynurenine read-out with Ehrlich reagent, absorbance 490 nm)). Details: HEK Human IDO-1 cellular assay.
Format: cell-based
Parameters: expressed in transfected cells
Protocol: Exemplary compounds were tested for inhibition of IDO activity.
Assessment of Human IDO-1 Inhibitory Activity in HEK Cells
HEK293 cells were transfected with a pCDNA-based mammalian expression vector harboring human IDO1 cDNA (NM 002164.2) by electroporation. They were cultured in medium (DMEM with 10% FBS) containing 1 mg/ml G418 for two weeks. Clones of HEK293 cells that stably expressed human IDO1 protein were selected and expanded for IDO inhibition assay.
The human IDO1/HEK293 cells were seeded at 10,000 cells per 50 μL per well with RPMI/phenol red free media contains 10% FBS in a 384-well black wall clear bottom tissue culture plate (Matrix Technologies LLC) 100 nL of certain concentration of compound was then added to each well using ECHO liquid handling systems. The cells were incubated for 20 hours in 37° C. incubator with 5% CO2.
The compound treatments were stopped by adding trichloroacetic acid (Sigma-Aldrich) to a final concentration at 0.2%. The cell plate was further incubated at 50° C. for 30 minute. The equal volume supernatant (20 μL) and 0.2% (w/v) Ehrlich reagent (4-dimethylaminobenzaldehyde, Sigma-Aldrich) in glacial acetic acid were mixed in a new clear bottom 384-well plate. This plate was then incubated at room temperature for 30 minute. The absorbance at 490 nm was measured on Envision plate reader.
Compound IC50 values were calculated using the counts of 500 nM of a reference standard treatment as one hundred percent inhibition, and counts of no compound but DMSO treatment as zero percent inhibition.

human IDO1, sequence (P14902 whole entry): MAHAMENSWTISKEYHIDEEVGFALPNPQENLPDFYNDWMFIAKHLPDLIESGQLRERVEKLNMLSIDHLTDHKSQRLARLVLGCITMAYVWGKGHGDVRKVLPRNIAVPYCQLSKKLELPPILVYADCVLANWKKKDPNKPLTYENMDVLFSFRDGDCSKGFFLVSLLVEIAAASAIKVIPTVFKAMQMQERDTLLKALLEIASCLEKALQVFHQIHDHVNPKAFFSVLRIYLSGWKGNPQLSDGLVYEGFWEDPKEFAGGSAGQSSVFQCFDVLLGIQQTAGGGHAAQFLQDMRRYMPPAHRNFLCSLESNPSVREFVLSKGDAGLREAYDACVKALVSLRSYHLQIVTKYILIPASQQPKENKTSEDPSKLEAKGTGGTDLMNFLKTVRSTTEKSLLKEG

| IC50 | SMILES |
| --- | --- |
| < 5 nM | CCC(CC(=O)O)c1cc(NC(=O)Nc2ccc3c(c2)OCO3)c(N(CC(C)C)CC(C)C)cc1F (racemic) [Example 1134, (±)-3-(5-(3-(Benzo[d][1,3]dioxol-5-yl)ureido)-4-(diisobutylamino)-2-fluorophenyl)pentanoic acid] |
| < 5 nM | CCOc1ccc(NC(=O)Nc2cc(C(CC)CC(=O)O)c(F)cc2N(CC(C)C)CC(C)C)c(F)c1 (racemic) [Example 1137, (±)-3-(4-(Diisobutylamino)-5-(3-(4-ethoxy-2-fluorophenyl)ureido)-2-fluorophenyl)pentanoic acid] |
| < 5 nM | CCC(CC(=O)O)c1cc(NC(=O)Nc2cnc(OC)nc2)c(N(CC(C)C)CC(C)C)cc1F (racemic) [Example 1140, (±)-3-(4-(Diisobutylamino)-2-fluoro-5-(3-(2-methoxypyrimidin-5-yl)ureido)phenyl)pentanoic acid] |
| > 50 nM | CCC(CC(=O)O)c1ccc(N2CCC[C@@H]2COC)c(NC(=O)Cc2ccc(C)cc2)c1 (mixture of isomers) [Example 1143, (±)-3-(4-((R)-2-(Methoxymethyl)pyrrolidin-1-yl)-3-(2-(p-tolyl)acetamido)phenyl)pentanoic acid] |
| < 5 nM | CC(C)CN(c1ccc(C(CC(=O)O)C2CC2)cc1NC(=O)Nc1ccc(Cl)cc1F)C1CCOCC1 (racemic) [Example 1198, (+/−)-3-(3-(3-(4-Chloro-2-fluorophenyl)ureido)-4-(isobutyl(tetrahydro-2H-pyran-4-yl)amino)phenyl)-3-cyclopropylpropanoic acid] |
| < 50 nM | Cc1cc(NC(=O)Nc2cc(C(CC(=O)O)C3CC3)ccc2N(CC(C)C)C2CCOCC2)no1 (racemic) [Example 1200, (+/−)-3-Cyclopropyl-3-(4-(isobutyl(tetrahydro-2H-pyran-4-yl)amino)-3-(3-(5-methylisoxazol-3-yl)ureido)phenyl)propanoic acid] |
| < 5 nM | Cc1ccc(NC(=O)Nc2cc(C(CC(=O)O)C3CC3)ccc2N(CC(C)C)C2CCOCC2)cc1 (racemic) [Example 1202, (+/−)-3-Cyclopropyl-3-(4-(isobutyl(tetrahydro-2H-pyran-4-yl)amino)-3-(3-(p-tolyl)ureido)phenyl)propanoic acid] |
| < 50 nM | CCOc1ccc(NC(=O)Nc2cc(C(CC(=O)O)C3CC3)ccc2N(CC(C)C)C2CCOCC2)cc1 (racemic) [Example 1204, (+/−)-3-Cyclopropyl-3-(3-(3-(4-ethoxyphenyl)ureido)-4-(isobutyl(tetrahydro-2H-pyran-4-yl)amino)phenyl)propanoic acid] |
| > 50 nM | CC(C)CN(c1ccc(C(CC(=O)O)C2CC2)cc1NC(=O)Nc1cncnc1)C1CCOCC1 (racemic) [Example 1206, (+/−)-3-Cyclopropyl-3-(4-(isobutyl(tetrahydro-2H-pyran-4-yl)amino)-3-(3-(pyrimidin-5-yl)ureido)phenyl)propanoic acid] |
| < 50 nM | Cc1ccc(CC(=O)Nc2cc(C(CC(=O)O)C3CC3)ccc2N(CC(C)C)C2CCOCC2)cc1 (racemic) [Example 1208, (+/−)-3-Cyclopropyl-3-(4-(isobutyl(tetrahydro-2H-pyran-4-yl)amino)-3-(2-(p-tolyl)acetamido)phenyl)propanoic acid] |
| > 50 nM | COCC(CC(=O)OC)c1ccc(N(CC(C)C)C2CCCCC2)c(NC(=O)Nc2ccc(C)cc2)c1 (racemic) [Example 1223, (+/−)-Methyl 3-(4-(cyclohexyl(isobutyl)amino)-3-(3-(p-tolyl)ureido)phenyl)-4-methoxybutanoate] |
| < 50 nM | COCC(CC(=O)O)c1ccc(N(CC(C)C)C2CCCCC2)c(NC(=O)Cc2ccccc2F)c1 (racemic) [Example 1230, (+/−)-3-(4-(Cyclohexyl(isobutyl)amino)-3-(2-(2-fluorophenyl)acetamido)phenyl)-4-methoxybutanoic acid] |

The remaining lines, values behind:

| SMILES | IC50 |
| --- | --- |
| COCCC(CC(=O)O)c1ccc(N(CC(C)C)C2CCCCC2)c(NC(=O)Nc2ccc(C)cc2)c1 (racemic) [Example 1003, (+/−)-3-(4-(Cyclohexyl(isobutyl)amino)-3-(3-(p-tolyl)ureido)phenyl)-5-methoxypentanoic acid] | < 5 nM |
| COCC(CC(=O)OC)c1ccc(N(CC(C)C)C2CCC(OC)CC2)c(NC(=O)Nc2ccc(C)cc2)c1 (racemic) [Example 1005, (+/−)-Methyl 3-(4-(isobutyl((1R,4R)-4-methoxycyclohexyl)amino)-3-(3-(p-tolyl)ureido)phenyl)-4-methoxybutanoate] | > 50 nM |
| CC(C)CN(CC(C)C)c1ccc(C(CC(=O)O)c2ccccc2)cc1NC(=O)Nc1ccc(OC(F)(F)F)cc1 (racemic) [Example 1009, (+/−)3-(4-(Diisobutylamino)-3-(3-(4-(trifluoromethoxy)phenyl)ureido)phenyl)-3-phenylpropanoic acid] | > 50 nM |
| Cc1ccc(CC(=O)Nc2cc(C(CC(=O)O)C(C)C)ccc2N(CC(C)C)CC(C)C)cc1 (racemic) [Example 1010] | < 5 nM |
| COC(Cc1ccc(N(CC(C)C)C2CCCCC2)c(NC(=O)Nc2ccc(C#N)cc2F)c1)C(=O)O (racemic) [Example 1011, 3-(3-(3-(4-Cyano-2-fluorophenyl)ureido)-4-(cyclohexyl(isobutyl)amino)phenyl)-2-methoxypropanoic acid] | < 50 nM |
| CCOc1ccc(C(=O)Nc2cc(C(CC)CC(=O)O)ccc2N(CC(C)C)C2CCCCC2)cc1 (racemic) [Example 1073, 3-(4-(Cyclohexyl(isobutyl)amino)-3-(4-ethoxybenzamido)phenyl)pentanoic acid] | > 50 nM |
| CCC(CC(=O)O)c1ccc(N(CC(C)C)C2CCCCC2)c(NC(=O)c2ccc(Oc3ccccc3)cc2)c1 (racemic) [Example 1074, 3-(4-(Cyclohexyl(isobutyl)amino)-3-(4-phenoxybenzamido)phenyl)pentanoic acid] | > 50 nM |
| CCC(CC(=O)O)c1ccc(N(CC(C)C)C2CCCCC2)c(NC(=O)C(F)(F)c2ccc(C)cc2)c1 (racemic) [Example 1075, 3-(4-(Cyclohexyl(isobutyl)amino)-3-(2,2-difluoro-2-(p-tolyl)acetamido)phenyl)pentanoic acid] | > 50 nM |
| CCC(CC(=O)O)c1cc(F)c(N(CC(C)C)CC(C)C)c(NC(=O)Cc2ccc(F)cc2F)c1 (racemic) [Example 1082] | < 5 nM |
| CCC(CC(=O)O)c1cc(F)c(N(CC(C)C)CC(C)C)c(NC(=O)Cc2ccc(C)cc2F)c1 (racemic) [Example 1083] | < 5 nM |
| CCC(CC(=O)O)c1ccc(N(CC(C)C)C2CCCCC2)c(NC(=O)Cc2ccc(Cl)cc2F)c1 (racemic) [Example 1085] | < 5 nM |
| CCC(CC(=O)O)c1ccc(N(CC(C)C)C2CCCCC2)c(NC(=O)Cc2cc(F)ccc2F)c1 (racemic) [Example 1087] | < 5 nM |
| CCC(CC(=O)O)c1ccc(N(CCC(C)C)C2CCCCC2)c(NC(=O)Cc2ccc(Cl)cc2F)c1 (racemic) [Example 1088] | < 50 nM |
| CCC(CC(=O)O)c1cc(NC(=O)Nc2ccc3c(c2)OCO3)c(N(CC(C)C)C2CCCCC2)cc1F (racemic) [Example 1110, (±)-3-(5-(3-(Benzo[d][1,3]dioxol-5-yl)ureido)-4-(cyclohexyl(isobutyl)amino)-2-fluorophenyl)pentanoic acid] | < 5 nM |
| CCC(CC(=O)O)c1cc(NC(=O)Nc2cc(C)no2)c(N(CC(C)C)C2CCCCC2)cc1F (racemic) [Example 1113, (±)-3-(4-(Cyclohexyl(isobutyl)amino)-2-fluoro-5-(3-(3-methylisoxazol-5-yl)ureido)phenyl)pentanoic acid] | < 5 nM |
| CCOc1ccc(NC(=O)Nc2cc(C(CC)CC(=O)O)c(F)cc2N(CC(C)C)C2CCCCC2)c(F)c1 (racemic) [Example 1116, (±)-3-(4-(Cyclohexyl(isobutyl)amino)-5-(3-(4-ethoxy-2-fluorophenyl)ureido)-2-fluorophenyl)pentanoic acid] | < 5 nM |
| CCC(CC(=O)O)c1cc(NC(=O)Nc2ccc(C)cc2F)c(N(CC(C)C)C2CCCCC2)cc1F (racemic) [Example 1119, (±)-3-(4-(Cyclohexyl(isobutyl)amino)-2-fluoro-5-(3-(2-fluoro-4-methylphenyl)ureido)phenyl)pentanoic acid] | < 5 nM |
| CCC(CC(=O)O)c1cc(NC(=O)Nc2cncnc2)c(N(CC(C)C)C2CCCCC2)cc1F (racemic) [Example 1122, (±)-3-(4-(cyclohexyl(isobutyl)amino)-2-fluoro-5-(3-(pyrimidin-5-yl)ureido)phenyl)pentanoic acid] | < 5 nM |
| CCC(CC(=O)O)c1cc(NC(=O)Nc2cnc(C)nc2)c(N(CC(C)C)C2CCCCC2)cc1F (racemic) [Example 1125, (±)-3-(4-(Cyclohexyl(isobutyl)amino)-2-fluoro-5-(3-(2-methylpyrimidin-5-yl)ureido)phenyl)pentanoic acid] | < 5 nM |
| CCC(CC(=O)O)c1cc(NC(=O)Nc2ccc(C)cc2)c(N(CC(C)C)CC(C)C)cc1F (racemic) [Example 1128, (±)-3-(4-(Diisobutylamino)-2-fluoro-5-(3-(p-tolyl)ureido)phenyl)pentanoic acid] | < 5 nM |
| CCOc1ccc(NC(=O)Nc2cc(C(CC)CC(=O)O)c(F)cc2N(CC(C)C)CC(C)C)cc1 (racemic) [Example 1131, (±)-3-(4-(Diisobutylamino)-5-(3-(4-ethoxyphenyl)ureido)-2-fluorophenyl)pentanoic acid] | < 5 nM |
